For five compounds, IC50 results are on record in patent publication US20090203711A1, “Inhibitors of P38 Map Kinase” (CHROMA THERAPEUTICS LTD., priority 2006, published 2009).

One assay relates to human whole blood. Briefly: LPS-stimulation of human whole blood, TNF-α release by ELISA. It is filed as cell-based. Conditions: LPS 100 ng/ml, 6 hrs, inhibitor added 2 hrs before, read-out: Inhibitor activity versus human whole blood TNFα release. On the procedure:
LPS-Stimulation of Human Whole Blood
Whole blood was taken by venous puncture using heparinised vacutainers (Becton Dickinson) and diluted in an equal volume of RPMI 1640 tissue culture media (Sigma). 100 μl was plated in V-bottomed 96 well tissue culture treated plates. 2 hrs after the addition of the inhibitor in 100 μl of RPMI 1640 media, the blood was stimulated with LPS (E. coli strain 005:B5, Sigma) at a final concentration of 100 ng/ml and incubated at 37° C. in 5% CO2 for 6 hrs. TNF-α levels were measured from cell-free supernatants by sandwich ELISA (R&D Systems #QTA00B)

The subject of a further assay is THP-1 cells. Briefly: LPS-stimulation of THP-1 cells, TNF-α release by ELISA. Type of assay: cell-based. The conditions noted are these: Homo sapiens, LPS 1 μg/ml, 6 hrs, inhibitor added 2 hrs before, read-out: Inhibitor activity versus THP-1 TNFα release. The procedure: LPS-Stimulation of THP-1 Cells
THP-1 cells were plated in 100 μl at a density of 4×10^4 cells/well in V-bottomed 96 well tissue culture treated plates and incubated at 37° C. in 5% CO2 for 16 hrs. 2 hrs after the addition of the inhibitor in 100 μl of tissue culture media, the cells were stimulated with LPS (E coli strain 005:B5, Sigma) at a final concentration of 1 μg/ml and incubated at 37° C. in 5% CO2 for 6 hrs. TNF-α levels were measured from cell-free supernatants by sandwich ELISA (R&D Systems #QTA00B)

Each structure is given as a SMILES string. Where a name gives a salt, the structure may show the parent alone.

Consider `Nc1c(C(=O)c2ccc(F)cc2F)ccc(=O)n1-c1c(F)cc(OCC[C@@H](N)C(=O)OC2CCCC2)cc1F` [Example 4, Cyclopentyl (R)-2-Amino-4-{4-[6-amino-5-(2,4-difluorobenzoyl)-2-oxo-2H-pyridin-1-yl]-3,5-difluorophenoxy}butanoate Trifluoroacetate], for which the IC50 in the assay on human whole blood lay in the range of 0.1 to 1 µM. The same measure, in the same setting: in the case of `CC(C)(C)OC(=O)[C@@H](N)CCCOc1cc(F)c(-n2c(N)c(C(=O)c3ccc(F)cc3F)ccc2=O)c(F)c1` [Example 6, Tert-Butyl (S)-2-Amino-5-{4-[6-amino-5-(2,4-difluorobenzoyl)-2-oxo-2H-Pyridin-1-yl]-3,5-difluorophenoxy}pentanoate] it was 0.1 to 1 µM; in that of `Nc1c(C(=O)c2ccc(F)cc2)ccc(=O)n1-c1c(F)cc(OCCC[C@H](N)C(=O)OC2CCCC2)cc1F` [Example 7], 0.1 to 1 µM. For `CC(C)(C)OC(=O)N[C@@H](CCCOc1cc(F)c(-n2c(N)c(C(=O)c3ccc(F)cc3F)ccc2=O)c(F)c1)C(=O)OC1CCCC1` [Intermediate 1, Cyclopentyl (S)-5-{4-[6-Amino-5-(2,4-difluorobenzoyl)-2-oxo-2H-pyridin-1-yl]-3,5-difluorophenoxy}-2-tert-butoxycarbonylamino Pentanoate], the IC50 in the assay with THP-1 cells was 0.1 to 1 µM. Same read-out and setting: in the case of `CC(C)(C)OC(=O)N[C@@H](CCOc1cc(F)c(-n2c(N)c(C(=O)c3ccc(F)cc3F)ccc2=O)c(F)c1)C(=O)OC1CCCC1` [Intermediate 2, Cyclopentyl (S)-4-{4-[6-Amino-5-(2,4-difluorobenzoyl)-2-oxo-2H-pyridin-1-yl]-3,5-difluorophenoxy}-2-tert-butoxycarbonylaminobutyrate] it was 0.1 to 1 µM.
